Assay results taken from the SangsterLogP compilation.

| SMILES | logP |
| --- | --- |
| CCN(CC)C(=O)CC1CCCCC1 | 3.12 |
| O=C(CC1CCCCC1)N1CCCCC1 | 3.2 |
| CCN(CC)C(=O)c1ccc(C)cc1 | 2.38 |
| Cc1ccc(C(=O)N(C)C)cc1 | 1.72 |
| CC(C)N(C(=O)Cc1ccccc1)C(C)C | 3.1 |
| CN(C)C(=O)CC1CCCCC1 | 2.19 |
| Cc1ccc(C(=O)N(C(C)C)C(C)C)cc1 | 2.5 |
| CCNC(=O)c1ccccc1Cl | 0.95 |
| COc1ccc(C(=O)N2CCCCC2)cc1 | 2.4 |
| CCN(CC)C(=O)c1ccc(OC)cc1 | 2.5 |
| CC(C)N(C(=O)c1ccccc1Cl)C(C)C | 3 |
| CCN(CC)C(=O)c1ccccc1Cl | 2.1 |
| CCOc1ccccc1C(=O)N(C(C)C)C(C)C | 3 |
| O=C(Cc1ccccc1)N1CCCCC1 | 2.44 |
| CCN(CC)C(=O)c1ccccc1 | 1.8 |
| CCNC(=O)c1cccc(C)c1 | 1.32 |
| Cc1cccc(C(=O)N(C(C)C)C(C)C)c1 | 3 |
| CN(C)C(=O)Cc1ccccc1 | 1.48 |

| SMILES | logP |
| --- | --- |
| CC(C)N(C(=O)c1ccccc1)C(C)C | 2.5 |
| Cc1cccc(C(=O)N2CCCCC2)c1 | 2.6 |
| CN(C)C(=O)c1ccccc1Cl | 1.54 |
| CCOc1ccccc1C(=O)N(CC)CC | 2.5 |
| CCNC(=O)c1ccc(C)cc1 | 1.38 |
| O=C(c1ccccc1Cl)N1CCCCC1 | 2.8 |
| CCN(CC)C(=O)Cc1ccccc1 | 2.4 |
| CCNC(=O)CC1CCCCC1 | 2.28 |
| O=C(c1ccccc1)N1CCCCC1 | 2.2 |
| Cc1ccc(C(=O)N2CCCCC2)cc1 | 2.8 |
| Cc1cccc(C(=O)N(C)C)c1 | 1.6 |
| CCNC(=O)Cc1ccccc1 | 1 |
| CCNC(=O)c1ccccc1OCC | 2.4 |
| CCOc1ccccc1C(=O)N1CCCCC1 | 2.6 |
| COc1ccc(C(=O)N(C(C)C)C(C)C)cc1 | 2.8 |
| CCNC(=O)c1ccc(OC)cc1 | 1.14 |
| CN(C)C(=O)c1ccccc1 | 1.2 |
| CCN(CC)C(=O)c1cccc(C)c1 | 2.34 |
